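96-well plates; 48 h exposure; 5 concentrations. Endpoints by linear interpolation between flanking doses. Not reached: highest tested concentration assigned. Abbreviation: GI50, concentration required for 50% inhibition of growth. The concentration for full growth arrest is given as TGI.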
Tests used:
Assay in all cases: NCI tumour cell line growth inhibition, 48 h
HOP-92 NSCLC = tested on: HOP-92 NSCLC
EKVX NSCLC = tested on: EKVX NSCLC
SNB-19 CNS = tested on: SNB-19 CNS
HS 578T breast = tested on: HS 578T breast
SF-295 CNS = tested on: SF-295 CNS
PC-3 prostate = tested on: PC-3 prostate
SK-MEL-28 melanoma = tested on: SK-MEL-28 melanoma
NCI/ADR-RES ovarian = tested on: NCI/ADR-RES ovarian
HL-60(TB) leukemia = tested on: HL-60(TB) leukemia
SK-MEL-5 melanoma = tested on: SK-MEL-5 melanoma
ACHN renal = tested on: ACHN renal
MALME-3M melanoma = tested on: MALME-3M melanoma
MDA-MB-435 = tested on: MDA-MB-435
MCF7 breast = tested on: MCF7 breast
OVCAR-3 ovarian = tested on: OVCAR-3 ovarian
M14 melanoma = tested on: M14 melanoma
LOX IMVI melanoma = tested on: LOX IMVI melanoma
NCI-H460 lung = tested on: NCI-H460 lung
HCT-15 colon = tested on: HCT-15 colon
A549 NSCLC = tested on: A549 NSCLC
TK-10 renal = tested on: TK-10 renal
786-0 renal = tested on: 786-0 renal
MDA-MB-231 breast = tested on: MDA-MB-231 breast
HT29 colon = tested on: HT29 colon
A498 renal = tested on: A498 renal
SN12C renal = tested on: SN12C renal
T-47D breast = tested on: T-47D breast
OVCAR-5 ovarian = tested on: OVCAR-5 ovarian
UO-31 renal = tested on: UO-31 renal
CCRF-CEM leukemia = tested on: CCRF-CEM leukemia
UACC-257 melanoma = tested on: UACC-257 melanoma
OVCAR-4 ovarian = tested on: OVCAR-4 ovarian
HCC-2998 colon = tested on: HCC-2998 colon
OVCAR-8 ovarian = tested on: OVCAR-8 ovarian
CAKI-1 renal = tested on: CAKI-1 renal
IGROV1 ovarian = tested on: IGROV1 ovarian
RXF 393 renal = tested on: RXF 393 renal
SR leukemia = tested on: SR leukemia
DU-145 prostate = tested on: DU-145 prostate
U251 CNS = tested on: U251 CNS
RPMI-8226 leukemia = tested on: RPMI-8226 leukemia
K-562 leukemia = tested on: K-562 leukemia
BT-549 breast = tested on: BT-549 breast
NCI-H522 lung = tested on: NCI-H522 lung
HOP-62 NSCLC = tested on: HOP-62 NSCLC
KM12 colon = tested on: KM12 colon
MOLT-4 leukemia = tested on: MOLT-4 leukemia
UACC-62 melanoma = tested on: UACC-62 melanoma
SK-OV-3 ovarian = tested on: SK-OV-3 ovarian
SF-539 CNS = tested on: SF-539 CNS
SK-MEL-2 melanoma = tested on: SK-MEL-2 melanoma
HCT-116 colon = tested on: HCT-116 colon

## COc1ccc(-c2nc3cc(Cl)c(Cl)cc3n2CC(=O)N=Nc2c(O)[nH]c3ccc(Cl)cc23)cc1
HOP-92 NSCLC
  GI50: 1160 nM
  TGI: 2770 nM
EKVX NSCLC
  GI50: 2120 nM
  TGI: 4940 nM
SNB-19 CNS
  GI50: 2000 nM
  TGI: 4210 nM
HS 578T breast
  GI50: 2120 nM
  TGI: 5530 nM
SF-295 CNS
  GI50: 1940 nM
  TGI: 3600 nM
PC-3 prostate
  GI50: 1680 nM
  TGI: 3340 nM
SK-MEL-28 melanoma
  GI50: 1780 nM
  TGI: 3250 nM
NCI/ADR-RES ovarian
  GI50: 1840 nM
  TGI: 3790 nM
HL-60(TB) leukemia
  GI50: 4870 nM
  TGI: > 100000 nM
SK-MEL-5 melanoma
  GI50: 2000 nM
  TGI: 4040 nM
ACHN renal
  GI50: 1780 nM
  TGI: 3200 nM
MALME-3M melanoma
  GI50: 1760 nM
  TGI: 3370 nM
MDA-MB-435
  GI50: 1740 nM
  TGI: 3400 nM
MCF7 breast
  GI50: 1830 nM
  TGI: 3620 nM
OVCAR-3 ovarian
  GI50: 1730 nM
  TGI: 3200 nM
M14 melanoma
  GI50: 1810 nM
  TGI: 3500 nM
LOX IMVI melanoma
  GI50: 1780 nM
  TGI: 3330 nM
NCI-H460 lung
  GI50: 1860 nM
  TGI: 3510 nM
HCT-15 colon
  GI50: 1920 nM
  TGI: 3880 nM
A549 NSCLC
  GI50: 1760 nM
  TGI: 3530 nM
TK-10 renal
  GI50: 2860 nM
  TGI: 7070 nM
786-0 renal
  GI50: 1800 nM
  TGI: 3280 nM
MDA-MB-231 breast
  GI50: 1850 nM
  TGI: 3970 nM
HT29 colon
  GI50: 1830 nM
  TGI: 3500 nM
A498 renal
  GI50: 1910 nM
  TGI: 3550 nM
SN12C renal
  GI50: 1950 nM
  TGI: 3760 nM
T-47D breast
  GI50: 1710 nM
  TGI: 3560 nM
OVCAR-5 ovarian
  GI50: 1910 nM
  TGI: 3780 nM
UO-31 renal
  GI50: 1260 nM
  TGI: 2530 nM
CCRF-CEM leukemia
  GI50: 3930 nM
  TGI: > 100000 nM
UACC-257 melanoma
  GI50: 1640 nM
  TGI: 3290 nM
OVCAR-4 ovarian
  GI50: 1740 nM
  TGI: 3370 nM
HCC-2998 colon
  GI50: 1920 nM
  TGI: 3560 nM
OVCAR-8 ovarian
  GI50: 1760 nM
  TGI: 3290 nM
CAKI-1 renal
  GI50: 1500 nM
  TGI: 2850 nM
IGROV1 ovarian
  GI50: 1740 nM
  TGI: 3460 nM
RXF 393 renal
  GI50: 1720 nM
  TGI: 3170 nM
SR leukemia
  GI50: 3030 nM
  TGI: > 100000 nM
DU-145 prostate
  GI50: 1860 nM
  TGI: 3500 nM
U251 CNS
  GI50: 1690 nM
  TGI: 3140 nM
RPMI-8226 leukemia
  GI50: 2310 nM
  TGI: 6540 nM
K-562 leukemia
  GI50: 2430 nM
  TGI: 6220 nM
BT-549 breast
  GI50: 2510 nM
  TGI: 6440 nM
NCI-H522 lung
  GI50: 1730 nM
  TGI: 3720 nM
HOP-62 NSCLC
  GI50: 1610 nM
  TGI: 3160 nM
KM12 colon
  GI50: 2150 nM
  TGI: 5180 nM
MOLT-4 leukemia
  GI50: 4440 nM
  TGI: > 100000 nM
UACC-62 melanoma
  GI50: 1700 nM
  TGI: 3390 nM
SK-OV-3 ovarian
  GI50: 1640 nM
  TGI: 3240 nM
SF-539 CNS
  GI50: 1710 nM
  TGI: 3180 nM
SK-MEL-2 melanoma
  GI50: 1850 nM
  TGI: 3620 nM
HCT-116 colon
  GI50: 1830 nM
  TGI: 3350 nM
